Tests used:
P450SeuC10 [1] = experiment: Whole-cell biotransformation in E. coli expressing P450SeuC10, ferredoxinSeuF08 and ferredoxin reductaseSCF15A (Example 4B); type: cell-based, Streptomyces eurythermus NRRL 2539; conditions: for inferred yield of oxidised product (UPLC-MS): product formed from parent substrate dosed at 100 mg/L, E. coli whole cells, 100 μL screening scale; for Overall % conversion to oxidised products: SeuC10, E. coli whole cells, 0.1 mg/ml substrate, 27° C., pH 7.4
Source text: Cell pellets were provided as in Example 2. […] Reactions were stopped and analysed as in Example 4.

P450SeuC10 [2] = experiment: Oxidase activity/spectrum testing with lyophilised material containing P450SeuC10, ferredoxinSeuF08 and ferredoxin reductaseSCF15A (Example 4A); type: biochemical, Streptomyces eurythermus NRRL 2539; conditions: for inferred yield of oxidised product (UPLC-MS): product formed from parent substrate dosed at 100 mg/L, lyophilised material, 100 μL screening scale; for Overall % conversion to oxidised products: SeuC10, lyophilised material, 0.1 mg/ml substrate, 27° C., 16-20 hours, pH 8.0, UPLC-MS
Description: Suspended cell pellets were provided as described in Example 2, containing recombinant P450, ferredoxin and ferredoxin reductase in 100 mM potassium phosphate buffer pH 8.0, 5 mM MgCl2, 5 mM TCEP, and 1 mM PMSF in a ratio of 3.0 ml of buffer per 1 g of cells. Lysed cells were produced by high pressure disruption using three cycles of 30 kpsi. Lysed material was centrifuged at 38,000×g for 40 minutes (4° C.) and the supernatant was sterilized by passing through a 0.2 micron filter to provide the cell-free enzyme preparation containing recombinant P450, ferredoxin and ferredoxin reductase.
(§1) Lyophilised material of recombinant P450, ferredoxin and ferredoxin reductase proteins was made as described in Example 3 and reconstituted in high purity water to the original volume. Biocatalysis was performed shaking at 27° C. in the following conditions: 100 mM potassium phosphate pH 8.0, 5 mM MgCl2 (both present in the reconstituted enzyme preparation) and 0.1 mg/ml substrate compound such as carbamazepine, bosentan, diclofenac, meloxicam, tivantinib or ambroxide.
(§2) Concentrations of P450, ferredoxin and ferredoxin reductase were as extracted (Example 3). Reactions were initiated by addition of 10× stock of cofactor mixture (50 mM G6P, 10 mM NADP, 10 UN/ml G6PDH) to provide a final volume of e.g., 10 μL to 90 μL for 100 μL total reaction volumes. After 16-20 hours, reactions were extracted with an equal volume of acetonitrile, centrifuged to remove precipitated proteins and conversion assessed by UPLC-MS analysis.
UPLC data were obtained as follows:
Column: Acquity UPLC BEH Shield RP18 1.7 μm 2.1 mm i.d. 50 mm length
Solvents: H2O, B: Acetonitrile, both with 0.1% Formic acid
Detector: Waters Acquity UPLC PDA (UV-Vis detection) and Waters Acquity UPLC QDA (MS)

P450AluC09 [3] = experiment: Substrate testing with lyophilised material containing P450AluC09 (Example 5, method of Example 4A); type: biochemical, Amycolatopsis lurida NRRL 2430; conditions: AluC09, lyophilised material, 0.1 mg/ml substrate
Description: as §1, §2
(§3) Other cytochrome P450 enzymes were expressed as described above, and their activities tested against the same substrates as P450SeuC10 using the methods described in Example 4. The other P450s tested were: P450AluC09 from Amycolatopsis lurida NRRL 2430 (SEQ ID NO: 13, see WO 2018/091885); SriC12 from Streptomyces rimosus NRRL 2234 (SEQ ID NO: 14, see WO 2020/109776); SriC20 from Streptomyces rimosus NRRL 2234 (SEQ ID NO: 15, see WO 2020/109776); SriC22 from Streptomyces rimosus NRRL 2234 (SEQ ID NO: 16, see WO 2020/109776); and CYP107L from Streptomyces platensis DSM 40041 (SEQ ID NO: 17, see Worsch et al., Biotechnology and Bioengineering 115: 2156-2166, 2018).

SriC12 = experiment: Substrate testing with lyophilised material containing SriC12 (Example 5, method of Example 4A); type: biochemical, Streptomyces rimosus NRRL 2234; conditions: 0.1 mg/ml substrate
Description: as §1, §2, §3

SriC20 = experiment: Substrate testing with lyophilised material containing SriC20 (Example 5, method of Example 4A); type: biochemical, Streptomyces rimosus NRRL 2234; conditions: 0.1 mg/ml substrate
Description: as §1, §2, §3

SriC22 = experiment: Substrate testing with lyophilised material containing SriC22 (Example 5, method of Example 4A); type: biochemical, Streptomyces rimosus NRRL 2234; conditions: 0.1 mg/ml substrate
Description: as §1, §2, §3

P450AluC09 [4] = experiment: Substrate testing with whole cells containing P450AluC09 (Example 5, method of Example 4B); type: cell-based, Amycolatopsis lurida NRRL 2430; conditions: AluC09, whole cells, 0.1 mg/ml substrate
Description: Cell pellets were provided as in Example 2. The cell pellets were defrosted, washed with 0.85% NaCl buffer and centrifuged at 4,000 RCF, 30 minutes at 4° C. The supernatant was discarded and the pellet was flash frozen in liquid nitrogen. The pellet was allowed to defrost again and resuspended in 40 mL of buffer containing 50 mM potassium phosphate, pH 7.4, 5 mM MgCl2 and 100 mM glucose. Biocatalysis was performed shaking at 27° C. with 0.1 mg/ml substrate compound such as carbamazepine, bosentan, diclofenac, meloxicam, tivantinib, ambroxide or others as shown in Table 2. Reactions were stopped and analysed as in Example 4.
as §3

Overall % conversion to oxidised products (P450SeuC10 [2]) [%] | SMILES | Overall % conversion to oxidised products (P450AluC09 [3]) [%] | Overall % conversion to oxidised products (SriC12) [%] | Overall % conversion to oxidised products (SriC20) [%] | Overall % conversion to oxidised products (SriC22) [%] | Overall % conversion to oxidised products (P450SeuC10 [1]) [%] | Overall % conversion to oxidised products (P450AluC09 [4]) [%] | further results
– | O=C(O)Cc1ccccc1Nc1c(Cl)cc(O)cc1Cl [4′-hydroxydiclofenac] | – | – | – | – | – | – | inferred yield of oxidised product (UPLC-MS) (P450SeuC10 [1]): 73.4%
– | O=C(O)Cc1cc(O)ccc1Nc1c(Cl)cccc1Cl [5-hydroxydiclofenac] | – | – | – | – | – | – | inferred yield of oxidised product (UPLC-MS) (P450SeuC10 [1]): 19.4%
– | CN1C(C(=O)Nc2ncc(C(=O)O)s2)=C(O)c2ccccc2S1(=O)=O [5′-carboxylmeloxicam] | – | – | – | – | – | – | inferred yield of oxidised product (UPLC-MS) (P450SeuC10 [2]): 5.3%
– | CN1C(C(=O)Nc2ncc(CO)s2)=C(O)c2ccccc2S1(=O)=O [5′-hydroxymethylmeloxicam] | – | – | – | – | – | – | inferred yield of oxidised product (UPLC-MS) (P450SeuC10 [2]): 28.4%
72.8 | CC1(C)CCC[C@]2(C)[C@H]3CCO[C@]3(C)CC[C@@H]12 [Ambroxide] | 0 | 0 | 0 | 0 | – | – | –
– | Cc1ccc(-n2nc(C(C)(C)C)cc2NC(=O)Nc2ccc(OCCN3CCOCC3)c3ccccc23)cc1 [BIRB796] | – | – | – | – | 19.3 | 5.2 | –
– | COc1ccccc1Oc1c(NS(=O)(=O)c2ccc(C(C)(C)C)cc2)nc(-c2ncccn2)nc1OCCO [Bosentan] | – | – | – | – | 87.1 | 100 | –
– | CC(C)(C)[C@H]1CC[C@H](CC2=C(O)C(=O)c3ccccc3C2=O)CC1 [Buparvaquone] | – | – | – | – | 23.4 | 48.8 | –
49.2 | NC(=O)N1c2ccccc2C=Cc2ccccc21 [Carbamazepine] | 0 | 3.2 | 0 | 0 | – | – | –
98.3 | O=C(O)Cc1ccccc1Nc1c(Cl)cccc1Cl [Diclofenac] | 89.9 | 33.9 | 0 | 0.9 | – | – | –
– | CC(C)(C)c1ccc(S(=O)(=O)Nc2nc(-c3ncccn3)nc(OCCO)c2Oc2ccccc2O)cc1 [O-desmethylbosentan] | – | – | – | – | – | – | inferred yield of oxidised product (UPLC-MS) (P450SeuC10 [1]): 3.4%
70.2 | CCCCCCCCCCCCCCCC(=O)O [Palmitic acid] | 28.5 | 35.5 | 0 | 0 | – | – | –
– | CCC[C@H](N[C@@H](C)C(=O)N1[C@H](C(=O)O)C[C@@H]2CCCC[C@@H]21)C(=O)OCC [Perindopril] | – | – | – | – | 14.4 | 0 | –
– | CC(C)c1nc(CN(C)C(=O)N[C@H](C(=O)N[C@@H](Cc2ccccc2)C[C@H](O)[C@H](Cc2ccccc2)NC(=O)OCc2cncs2)C(C)C)cs1 [Ritonavir] | – | – | – | – | 21.6 | 86.3 | –
– | N#CC[C@H](C1CCCC1)n1cc(-c2ncnc3[nH]ccc23)cn1 [Ruxolitinib] | – | – | – | – | 38.6 | 34.3 | –
21 | CCCCNC(=O)NS(=O)(=O)c1ccc(C)cc1 [Tolbutamide] | 0 | 34 | 0 | 0 | – | – | –
– | Fc1ccc(C(OCCN2CCN(CCCc3ccccc3)CC2)c2ccc(F)cc2)cc1 [Vanoxerine] | – | – | – | – | 26.5 | 0 | –
– | NC(=O)N1c2ccccc2C2OC2c2ccccc21 (stereo not drawn) [carbamazepine-10,11-epoxide] | – | – | – | – | – | – | inferred yield of oxidised product (UPLC-MS) (P450SeuC10 [2]): 49%
– | COc1ccccc1Oc1c(NS(=O)(=O)c2ccc(C(C)(C)CO)cc2)nc(-c2ncccn2)nc1OCCO [hydroxy-bosentan] | – | – | – | – | – | – | inferred yield of oxidised product (UPLC-MS) (P450SeuC10 [1]): 81%

SMILES | Overall % conversion to oxidised products (P450SeuC10 [2]) [%] | Overall % conversion to oxidised products (P450AluC09 [3]) [%] | Overall % conversion to oxidised products (SriC12) [%] | Overall % conversion to oxidised products (SriC20) [%] | Overall % conversion to oxidised products (SriC22) [%] | Overall % conversion to oxidised products (P450SeuC10 [1]) [%] | Overall % conversion to oxidised products (P450AluC09 [4]) [%] | further results
C/C(=C\c1csc(C)n1)[C@@H]1C[C@@H]2O[C@]2(C)CCC[C@H](C)[C@H](O)[C@@H](C)C(=O)C(C)(C)[C@@H](O)CC(=O)O1 [Epothilone B] | 35.1 | 46 | 2 | 0 | 0 | – | – | –
